Results on 41 compounds are retold here after ChEMBL document CHEMBL3714730, “Diaminopyrimidines as P2X3 and P2X2/3 modulators” (2009).

Activity calls are given as the source filed them. The calls are words filed in the database; no cut-off is given here.

For test [1], the target named is T1, P2X purinoceptor 3 (Rattus norvegicus) (UniProt P49654).
T1 sequence (whole entry): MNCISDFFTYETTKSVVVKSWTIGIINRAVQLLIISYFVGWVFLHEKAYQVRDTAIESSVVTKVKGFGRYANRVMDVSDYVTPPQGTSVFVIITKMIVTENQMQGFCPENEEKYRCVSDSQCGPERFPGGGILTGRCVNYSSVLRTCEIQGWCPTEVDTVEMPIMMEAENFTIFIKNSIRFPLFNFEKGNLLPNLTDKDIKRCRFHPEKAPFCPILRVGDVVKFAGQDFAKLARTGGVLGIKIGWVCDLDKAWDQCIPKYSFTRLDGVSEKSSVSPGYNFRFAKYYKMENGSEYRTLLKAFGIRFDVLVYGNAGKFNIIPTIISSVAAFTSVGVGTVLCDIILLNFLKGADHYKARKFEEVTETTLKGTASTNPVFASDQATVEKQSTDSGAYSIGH
Nature of the test: Antagonist activity against rat P2X3 receptor expressed in CHOK1 cells assessed as inhibition of alpha,beta-meATP-induced calcium response incubated for 20 mins by Fluo-3AM dye based FLIPR assay. To be noted: CHO-K1. The class given is functional, cell-based.

Test [2] concerns the target P2X2/P2X3 heterotrimeric receptor (Homo sapiens) (UniProt Q9UBL9+P56373). Nature of the test: Antagonist activity against human P2X2/3 receptor expressed in CHOK1 cells assessed as inhibition of alpha,beta-meATP-induced calcium response incubated for 20 mins by Fluo-3AM dye based FLIPR assay. To be noted: CHO-K1. It counts as functional, cell-based.

For `COc1cc(C(C)C)c(Oc2cnc(N)nc2N)cc1C#CCO`, the inhibition entry in test [1] and in test [2] was “Active” each time.

With `C#Cc1cc(OC)c(I)cc1Oc1cnc(N)nc1N`, the inhibition result in test [1] and in test [2] was “Active” each time.

Turning to `CC#Cc1cc(Oc2cnc(N)nc2N)c(C(C)C)cc1OC`, the inhibition result in test [1] and in test [2] was “Active” in each case.

Regarding `COc1cc(C(C)C)c(Oc2cnc(N)nc2N)cc1C#Cc1cccnc1`, the inhibition result in test [1] and in test [2] was “Active” each time.

With `C#Cc1cc(Oc2cnc(NCCN3CCOCC3)nc2N)c(C(C)C)cc1OC`, the inhibition entry in test [1] and in test [2] was “Active” in each case.

As to `COCC#Cc1cc(Oc2cnc(N)nc2N)c(C(C)C)cc1OC`, the inhibition entry in test [1] and in test [2] was “Active” in each case.

Regarding `C#Cc1ccc(C(C)C)c(Oc2cnc(N)nc2N)c1`, the inhibition result in test [1] and in test [2] was “Active” each time.

For `COc1cc(C(C)C)c(Oc2cnc(N)nc2N)cc1C#Cc1ccccn1`, the inhibition entry in test [1] and in test [2] was “Active” each time.

For `C#Cc1cc(Oc2cnc(NCCN(C)C)nc2N)c(C(C)C)cc1OC`, the inhibition entry in test [1] and in test [2] was “Active” in each case.

For the compound `COc1cc(C(C)C)c(Oc2cnc(N)nc2N)cc1C#Cc1ccccc1`, the inhibition result in test [1] and in test [2] was “Active” throughout.

Take `COc1cc(C(C)C)c(Oc2cnc(N)nc2N)cc1C#Cc1ccsc1`: the inhibition result in test [1] and in test [2] was “Active” in each case.

For the compound `C#Cc1ccc(I)c(Oc2cnc(N)nc2N)c1`, the inhibition result in test [1] and in test [2] was “Active” in each case.

For `C#Cc1cc(Oc2cnc(NC3CCOCC3)nc2N)c(C(C)C)cc1OC`, the inhibition result in test [1] and in test [2] was “Active” each time.

Take `C#Cc1cc(Oc2cnc(NCCCO)nc2N)c(C(C)C)cc1OC`: the inhibition result in test [1] and in test [2] was “Active” throughout.

Turning to `COc1cc(C(C)C)c(Oc2cnc(N)nc2N)cc1C#CCCCO`, the inhibition entry in test [1] and in test [2] was “Active” each time.

In the case of `C#Cc1cc(Oc2cnc(NCCO)nc2N)c(C(C)C)cc1OC`, the inhibition result in test [1] and in test [2] was “Active” in each case.

`COc1cc(C(C)C)c(Oc2cnc(N)nc2N)cc1C#CCCC#N`: the inhibition entry in test [1] and in test [2] was “Active” throughout.

For the compound `COc1cc(C(C)C)c(Oc2cnc(N)nc2N)cc1C#CC1CC1`, the inhibition result in test [1] and in test [2] was “Active” throughout.

In the case of `C#Cc1ccc(C#C)c(Oc2cnc(N)nc2N)c1`, the inhibition result in test [1] and in test [2] was “Active” in each case.

Take `COc1cc(C(C)C)c(Oc2cnc(N)nc2N)cc1C#C[Si](C)(C)C`: the inhibition result in test [1] and in test [2] was “Active” throughout.

Consider `C#Cc1cc(OC)c(C(C)C)c(Oc2cnc(N)nc2N)c1`, for which the inhibition entry in test [1] and in test [2] was “Active” each time.

Consider `C#Cc1cc(Oc2cnc(N)nc2N)c(C(C)C)cc1OC`, for which the inhibition result in test [1] and in test [2] was “Active” in each case.

Regarding `C#Cc1cc(Oc2cnc(N)nc2N)c(CC)cc1OC`, the inhibition result in test [1] and in test [2] was “Active” each time.

Consider `COc1cc(C(C)C)c(Oc2cnc(N)nc2N)cc1C#CCCO`, for which the inhibition result in test [1] and in test [2] was “Active” throughout.

For `COc1cc(C(C)C)c(Oc2cnc(N)nc2N)cc1C#Cc1cncn1C`, the inhibition entry in test [1] and in test [2] was “Active” each time.

As to `C#Cc1cc(Oc2cnc(N)nc2N)c(C#C)cc1OC`, the inhibition result in test [1] and in test [2] was “Active” throughout.

With `COc1cc(I)cc(Oc2cnc(N)nc2N)c1C(C)C`, the inhibition entry in test [1] and in test [2] was “Active” throughout.

As to `COc1cc(C(C)C)c(Oc2cnc(N)nc2N)cc1C#Cc1ccncc1`, the inhibition result in test [1] and in test [2] was “Active” in each case.

Turning to `CC#Cc1cc(Oc2cnc(N)nc2N)c(C(C)C)cc1F`, the inhibition result in test [1] and in test [2] was “Active” each time.

Consider `C#Cc1cc(Oc2cnc(NCC(C)O)nc2N)c(C(C)C)cc1OC` (configuration not stated), for which the inhibition result in test [1] and in test [2] was “Active” each time.

Turning to `C#Cc1cc(Oc2cnc(NC(C)CO)nc2N)c(C(C)C)cc1OC` (configuration not stated), the inhibition result in test [1] and in test [2] was “Active” each time.

As to `C#Cc1cc(Cc2cnc(N)nc2N)c(C(C)C)cc1OC`, the inhibition result in test [1] and in test [2] was “Active” each time.

For `CNCC#Cc1cc(Oc2cnc(N)nc2N)c(C(C)C)cc1OC`, the inhibition entry in test [1] and in test [2] was “Active” throughout.

On to `C#Cc1cc(Oc2cnc(NC3CCN(S(C)(=O)=O)CC3)nc2N)c(C(C)C)cc1OC`, for which the inhibition result in test [1] and in test [2] was “Active” throughout.

For `C#Cc1cc(Oc2cnc(N)nc2N)c(C(C)C)cc1OCc1cccc(F)c1`, the inhibition entry in test [1] and in test [2] was “Active” in each case.

`CCCC#Cc1cc(Oc2cnc(N)nc2N)c(C(C)C)cc1OC`: the inhibition entry in test [1] and in test [2] was “Active” each time.

On to `C#Cc1cc(Oc2cnc(NCCN3CCCCC3)nc2N)c(C(C)C)cc1OC`, for which the inhibition entry in test [1] and in test [2] was “Active” in each case.

Consider `C#Cc1cc(Oc2cnc(N)nc2N)c(C(C)C)cc1OCCO`, for which the inhibition entry in test [1] and in test [2] was “Active” each time.

Turning to `C#Cc1cc(Oc2cnc(N)nc2N)c(C(C)C)cc1Cl`, the inhibition entry in test [1] and in test [2] was “Active” throughout.

`C#Cc1cc(Oc2cnc(N)nc2N)c(C(C)C)cc1F`: the inhibition result in test [1] and in test [2] was “Active” in each case.

Regarding `C#Cc1cc(Oc2cnc(NC(CO)CO)nc2N)c(C(C)C)cc1OC`, the inhibition result in test [1] and in test [2] was “Active” throughout.
